Values quoted from earlier work, collected in US11058116B1, “Composition for stimulating plant growth and resistance to stress factors” (AGRATEK PTE. LTD., priority 2018, dated 2021).

Key:
[1] = system: seeds; conditions: pre-treatment of seeds with a solution
[2] = system: mold; conditions: pre-treatment of seeds with a solution

Structure (SMILES): O=C([O-])CCC(=O)[O-].[Mg+2] [succinate of magnesium, magnesium succinate (Mg2C4H4O4)]
- germination (increased to) [1]: 99%
- reduces the seeds infection with mold [2]: 86%
